Data as given in patent US9938238B2, “Anti-auxin compounds” (priority 2015, dated 2018).
“Also recorded” adds a separate entry of the source.

Tests used:
Col-0 wt seedlings [1] = experiment: Blockage of auxin dependent inhibition of root growth; format: in vivo, Arabidopsis
Method: For screening for chemicals that reduce ethylene response, Arabidopsis ctr1-3 seeds were planted on a microtiter plate containing PNS media in the presence of individual chemicals (50 μM concentration of each) from the Microsource Spectrum Collection. Seedlings were grown in the dark for 4 d after which they were scored for manifestation of the ethylene responsive triple response. For all other growth experiments, seedlings were planted on PNS media supplemented with the relevant chemical (Deslauriers and Larsen, 2010). For conditions requiring pamoic acid, media was supplemented with Pamoic acid disodium salt (Sigma Life Science, St. Louis, Mo.). Measurement of ethylene production was conducted as previously described (Deslauriers and Larsen, 2010). […]

Col-0 wt seedlings [2] = experiment: Root gravitropism on vertical agar plates; format: in vivo, Arabidopsis
DR5::GUS = experiment: GUS analysis of auxin responsive DR5::GUS reporter line; format: in vivo, Arabidopsis
Method: GUS analysis of DR5::GUS lines was performed as previously described (Ni et al., 2001).
Auxin responsiveness has also been assessed using the Arabidopsis DR5::GUS transgenic line in which several auxin response elements are fused upstream of the GUS reporter gene (Ni et al., 2001). Normally, treatment of DR5::GUS lines with exogenous auxin leads to increased GUS levels, which can be visualized through accumulation of blue color upon adding X-Gluc.

Col-0 wt seedlings [3] = experiment: Seedling triple response of ethylene-treated etiolated Col-0 wt seedlings; format: in vivo, Arabidopsis
Method: (§1) For screening for chemicals that reduce ethylene response, Arabidopsis ctr1-3 seeds were planted on a microtiter plate containing PNS media in the presence of individual chemicals (50 μM concentration of each) from the Microsource Spectrum Collection. Seedlings were grown in the dark for 4 d after which they were scored for manifestation of the ethylene responsive triple response. For all other growth experiments, seedlings were planted on PNS media supplemented with the relevant chemical (Deslauriers and Larsen, 2010). For conditions requiring pamoic acid, media was supplemented with Pamoic acid disodium salt (Sigma Life Science, St. Louis, Mo.). Measurement of ethylene production was conducted as previously described (Deslauriers and Larsen, 2010).
For Col-0 wt, seedlings were grown in either the presence or absence of 5 μM AgNO3, an inhibitor of ethylene perception, or 100 μL L^−1 ethylene, which is a concentration that results in maximal response in etiolated seedlings. […] It should be noted that the phenotype of PA-treated seedlings in the presence of saturating ethylene is strikingly similar to ethylene-treated wei8 and tart loss-of-function mutants, which are deficient in auxin biosynthesis (Stepanova et al., 2008).

[4] = tested on: Col-0 wt, tir1-1, afb1-5, afb2-3, afb3-5, afb4-1 seedlings; experiment: Hypocotyl and root elongation of auxin receptor loss-of-function mutants; format: in vivo, Arabidopsis; conditions: tir1-1, increasing range of Tolmetin
Source text: Loss of proper auxin signaling as in the dominant shy2-2 mutant (Tian et al., 2003), which fails to have proper turnover of the IAA3 repressor of auxin response, leads to severe hypocotyl shortening for etiolated seedlings (Robles et al., 2012). […] It was of interest to determine what effect PA might have on hypocotyl and root elongation for loss-of-function mutants representing members of the Arabidopsis family of auxin receptors. It was predicted that mutants for receptors with a more prominent role in auxin dependent maintenance of organ elongation would be more severely affected by PA treatment due to the additive effect of the loss-of-function mutation with the effect of this anti-auxinic compound.
For analysis of the role of the various receptors in hypocotyl elongation, Col-0 wt and loss-of-function mutants for all of the auxin receptors (Si-Ammour et al., 2011) except AFB5 were grown for 4 d in the dark in the absence or presence of 30 μM PA on media supplemented with 5 μM AgNO3, which was included to eliminate the negative effect of ethylene on hypocotyl elongation.
A similar result was found for tir1-1 roots. For this experiment, seedlings were grown in the dark for 4 d in the absence or presence of 30 μM PA after which root length was measured. […] This was confirmed by analysis of growth of Col-0 wt and tir1-1 roots across a range of PA concentrations.

[5] = tested on: etiolated Col-0 wt seedlings; experiment: Measurement of ethylene biosynthesis by gas chromatography; format: in vivo, Arabidopsis
Method: as §1

Col-0 wt seedlings [6] = experiment: Root length dose response; format: in vivo, Arabidopsis
Method: as §1
Auxin is required for normal root growth since at physiological concentrations it promotes cell elongation.

TIR1-IAA7 complex = biological target: T1, TIR1-IAA7 complex (Arabidopsis thaliana, UniProt Q570C0); experiment: In vitro assembly of the TIR1-IAA7 complex in the presence of auxin; format: biochemical
T1 sequence (Q570C0 1-594): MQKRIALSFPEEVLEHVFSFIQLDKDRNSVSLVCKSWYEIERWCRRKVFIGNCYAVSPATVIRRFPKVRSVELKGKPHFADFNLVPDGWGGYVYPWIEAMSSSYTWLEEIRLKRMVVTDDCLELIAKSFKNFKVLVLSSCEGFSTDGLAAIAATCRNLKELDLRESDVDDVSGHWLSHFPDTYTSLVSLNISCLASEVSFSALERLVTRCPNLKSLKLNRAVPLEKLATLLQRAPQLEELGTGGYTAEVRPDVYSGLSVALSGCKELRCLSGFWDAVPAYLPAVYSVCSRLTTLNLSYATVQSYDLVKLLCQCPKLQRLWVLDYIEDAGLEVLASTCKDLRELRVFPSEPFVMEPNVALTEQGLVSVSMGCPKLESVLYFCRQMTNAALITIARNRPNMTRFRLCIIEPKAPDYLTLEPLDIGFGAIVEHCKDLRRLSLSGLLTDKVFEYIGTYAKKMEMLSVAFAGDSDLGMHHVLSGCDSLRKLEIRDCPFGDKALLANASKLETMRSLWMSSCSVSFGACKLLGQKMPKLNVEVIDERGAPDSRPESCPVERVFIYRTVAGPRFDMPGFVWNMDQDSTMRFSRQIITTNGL
Source text: It should be noted that based on our growth analysis with various loss-of-function mutants for auxin receptors, it is likely that one or more of the other receptors are affected to a greater extent than TIR1 by each of these chemicals.

ctr1-3 seedlings = experiment: Seedling triple response of constitutive ethylene response mutant ctr1-3 (library screen and follow-up); format: in vivo, Arabidopsis
Method: as §1
A chemical library screen was performed in which etiolated seedlings of the constitutive ethylene response mutant, ctr1-3, were grown in air for 4 d in the presence of chemicals from the Microsource Spectrum Collection, a bioactive and natural compound library consisting of 2000 different compounds. ctr1-3 seedlings were scored for presentation of the ethylene regulated seedling triple response, consisting of severe hypocotyl and root shortening and exaggerated apical hook formation.

[7] = 5 days in the light, 50 micromolar Tolmetin (FIG. 7)
[8] = etiolated ctr1-3 in air, 4 d, 50 μM of each chemical

## Cc1ccc(C(=O)c2ccc(CC(=O)O)n2C)cc1 [Tolmetin]
Col-0 wt seedlings [1]; 5 days, 50 micromolar Tolmetin plus 300 nM IAA (FIG. 6)
  inhibitory effect of Tolmetin on root length on addition of IAA: almost completely overcome
Col-0 wt seedlings [1]; 5 days, 50 micromolar Tolmetin, 0 nM IAA (FIG. 6)
  root length, Tolmetin alone: significant root growth inhibition
Col-0 wt seedlings [1]; light, 7 d, 30 μM PA or 50 μM Tolmetin alone versus untreated roots
  root length, anti-auxin alone: significantly inhibited
Col-0 wt seedlings [1]; light, 7 d, 30 μM PA with 150 nM NAA, 50 μM Tolmetin with 300 nM IAA
  inhibitory effects of exogenous auxin on root length: greatly reduced the inhibitory effects of exogenous auxin
Col-0 wt seedlings [2]; 4 d, vertical agar plates, 30 μM PA or 50 μM Tolmetin
  direction of root growth (gravitropism): grew in a random manner that was independent of gravity
Col-0 wt seedlings [2]; [7]
  direction of root growth (gravitropism): agravitropic root growth
  root hairs: completely lacked root hairs
DR5::GUS; 0 versus 100 micromolar Tolmetin, no exogenous auxin (FIG. 8)
  dark color (GUS) in the absence of exogenous auxin: comparable level of dark color
DR5::GUS; 100 μM Tolmetin, 750 nM IAA (FIG. 8)
  staining / auxin dependent lateral root formation: prevented staining in the area of lateral root development; also recorded: completely blocks auxin dependent lateral root formation
DR5::GUS; 100 μM Tolmetin, exposure to IAA
  auxin dependent accumulation of GUS in root tips: blocked auxin dependent accumulation of GUS in root tips
Col-0 wt seedlings [3]; Col-0 wt with 5 μM AgNO3, 4 d dark, 10 μM PA or Tolmetin up to 30 μM
  seedling length independent of ethylene: negative effect was not seen
Col-0 wt seedlings [3]; Tolmetin 20-100 micromolar, Col-0 wt treated with saturating ethylene (FIG. 1)
  manifestation of the ethylene dependent seedling triple response (loss of apical hook formation): partially blocks
Col-0 wt seedlings [3]; etiolated Col-0 wt, 100 μL L−1 (saturating) ethylene, 4 d dark, 10 μM PA or Tolmetin up to 30 μM
  apical hook formation: prevent apical hook formation; also recorded: nearly complete loss of apical hook formation
Col-0 wt seedlings [3]; etiolated Col-0 wt, saturating ethylene, 4 d dark, 10 μM PA or Tolmetin up to 30 μM
  root length / organ specificity of effect in ethylene treated seedlings: specific to hypocotyls
[4]
  root growth sensitivity of tir1-1: hypersensitive
[5]; 10 μM PA or 30 μM Tolmetin, 96 h, ethylene generated in the last 18 h
  ethylene biosynthesis: no measurable effect on ethylene biosynthesis
[5]; 50 micromolar Tolmetin, 4 days in the dark (FIG. 4)
  ethylene biosynthesis: does not reduce ethylene biosynthesis
Col-0 wt seedlings [6]; Col-0 wt, 7 d, increasing concentrations, versus untreated control roots
  root length at increasing concentrations: severe inhibition of root length
Col-0 wt seedlings [6]; Col-0 wt, 7 d, low concentrations
  root growth at low concentrations: stimulatory effect
Col-0 wt seedlings [6]; light, increasing concentrations of Tolmetin, 5 days (FIG. 5)
  root length: inhibitory to root growth at high concentrations
TIR1-IAA7 complex
  blockage of assembly of the TIR1-IAA7 complex: not been possible to demonstrate
ctr1-3 seedlings; ctr1-3, 10 μM PA or 30 micromolar Tolmetin
  ethylene-dependent root growth inhibition: did not prevent the severe root growth inhibition; also recorded: does not affect ethylene-dependent root growth inhibition
ctr1-3 seedlings; ctr1-3 grown in the light, increasing concentrations of Tolmetin (FIG. 3)
  root growth of light grown ctr1-3: No positive effect on root growth was observed
ctr1-3 seedlings; dark grown ctr1-3, 10 μM PA or 30 μM Tolmetin
  apical hook formation: prevent apical hook formation; also recorded: fully eliminated apical hook formation; also recorded: nearly complete loss of apical hook formation
ctr1-3 seedlings; [8]
  apical hook formation in chemical library screen: blocked apical hook formation
  root length in chemical library screen: measurably longer roots
